Measurements published in US20200138927A1, “NON-CROSS-LINKED […] […] […] FOR USE IN C[…]” (GlaxoSmithKline Biologicals SA, priority 2012, published 2020).
In brackets after ≈: the same amount, converted by molar mass.

How the values were obtained:
[1] = Solubility in water; type: physicochemical
[2] = Adsorption to aluminium hydroxide; type: physicochemical

Compound: Cc1ccc2c(c1)nc(N)c1ncc(CCc3ccc(OCCOCCOCCC(F)(F)P(=O)(O)O)cc3C)cc12 [Compound K1]
- solubility [1]: ~4000 µg/mL (≈ 6.78 mM)
- adsorption to aluminium hydroxide [2]: adsorbs well
